{"source": "ChEMBL document CHEMBL3885881", "about": "“DrugMatrix”", "species_on_record": "Rattus norvegicus", "experiment": "DrugMatrix - Regimen: Daily Repeat", "type": "toxicity, organism-based, Sprague-Dawley", "parameters": "regimen Daily Repeat, gender Male, age 6-8 weeks", "details": "in vivo, po, 100 mg/kg, route oral GAVAGE, dose level High, […]; for ABSOLUTE BASOPHIL / ABSOLUTE EOSINOPHIL / ABSOLUTE LYMPHOCYTE / ABSOLUTE MONOCYTE / ABSOLUTE SEGMENTED NEUTROPHIL / BASOPHIL / EOSINOPHIL / ERYTHROCYTE COUNT / HEMATOCRIT / HEMOGLOBIN / LEUKOCYTE COUNT / LYMPHOCYTE / MEAN CORPUSCULAR HEMOGLOBIN / MEAN CORPUSCULAR HEMOGLOBIN CONCENTRATION / MEAN CORPUSCULAR VOLUME / MONOCYTE / NEUTROPHIL / NUCLEATED RED BLOOD CELLS / PLATELET COUNT: tissue Blood; for ALANINE AMINOTRANSFERASE / ALBUMIN / ALKALINE PHOSPHATASE / ASPARTATE AMINOTRANSFERASE / BLOOD UREA NITROGEN / CARBON DIOXIDE / CHLORIDE / CHOLESTEROL / CREATINE PHOSPHOKINASE / CREATININE / GLUCOSE / LACTATE DEHYDROGENASE / LIPASE / PHOSPHORUS / POTASSIUM / SODIUM / TOTAL BILIRUBIN / TOTAL PROTEIN / URIC ACID: tissue Plasma"}
{"smiles": "CN(C)CCCN1c2ccccc2Sc2ccccc21", "note": "[PROMAZINE]", "values": [{"measurement": "ABSOLUTE BASOPHIL", "setting": "72 h, time 3 day", "value": 0, "unit": "CELLS/uL"}, {"measurement": "ABSOLUTE EOSINOPHIL", "setting": "72 h, time 3 day", "value": 0, "unit": "CELLS/uL"}, {"measurement": "ABSOLUTE LYMPHOCYTE", "setting": "72 h, time 3 day", "value": 15637.67, "unit": "CELLS/uL"}, {"measurement": "ABSOLUTE MONOCYTE", "setting": "72 h, time 3 day", "value": 123, "unit": "CELLS/uL"}, {"measurement": "ABSOLUTE SEGMENTED NEUTROPHIL", "setting": "72 h, time 3 day", "value": 572.67, "unit": "CELLS/uL"}, {"measurement": "BASOPHIL", "setting": "72 h, time 3 day", "value": 0, "unit": "%"}, {"measurement": "EOSINOPHIL", "setting": "72 h, time 3 day", "value": 0, "unit": "%"}, {"measurement": "ERYTHROCYTE COUNT", "setting": "72 h, time 3 day", "value": 6.09, "unit": "x10E6/uL"}, {"measurement": "HEMATOCRIT", "setting": "72 h, time 3 day", "value": 37.23, "unit": "%"}, {"measurement": "HEMOGLOBIN", "setting": "72 h, time 3 day", "value": 15.1, "unit": "G/DL"}, {"measurement": "LEUKOCYTE COUNT", "setting": "72 h, time 3 day", "value": 16.33, "unit": "x10E3/uL"}, {"measurement": "LYMPHOCYTE", "setting": "72 h, time 3 day", "value": 96, "unit": "%"}, {"measurement": "MEAN CORPUSCULAR HEMOGLOBIN", "setting": "72 h, time 3 day", "value": 24.83, "unit": "pg"}, {"measurement": "MEAN CORPUSCULAR HEMOGLOBIN CONCENTRATION", "setting": "72 h, time 3 day", "value": 40.57, "unit": "G/DL"}, {"measurement": "MEAN CORPUSCULAR VOLUME", "setting": "72 h, time 3 day", "value": 61.17, "unit": "fL"}, {"measurement": "MONOCYTE", "setting": "72 h, time 3 day", "value": 0.67, "unit": "%"}, {"measurement": "NEUTROPHIL", "setting": "72 h, time 3 day", "value": 3.33, "unit": "%"}, {"measurement": "NUCLEATED RED BLOOD CELLS", "setting": "72 h, time 3 day", "value": "0 /100WBC"}, {"measurement": "PLATELET COUNT", "setting": "72 h, time 3 day", "value": 1276.67, "unit": "x10E3/uL"}, {"measurement": "ALANINE AMINOTRANSFERASE", "setting": "72 h, time 3 day", "value": 60.33, "unit": "u/L"}, {"measurement": "ALBUMIN", "setting": "72 h, time 3 day", "value": 4.43, "unit": "G/DL"}, {"measurement": "ALKALINE PHOSPHATASE", "setting": "72 h, time 3 day", "value": 366.67, "unit": "u/L"}, {"measurement": "ASPARTATE AMINOTRANSFERASE", "setting": "72 h, time 3 day", "value": 101.33, "unit": "u/L"}, {"measurement": "BLOOD UREA NITROGEN", "setting": "72 h, time 3 day", "value": 17, "unit": "mg/dL"}, {"measurement": "CARBON DIOXIDE", "setting": "72 h, time 3 day", "value": 28, "unit": "mmol/L"}, {"measurement": "CHLORIDE", "setting": "72 h, time 3 day", "value": 101.67, "unit": "MEQ/L"}, {"measurement": "CHOLESTEROL", "setting": "72 h, time 3 day", "value": 88, "unit": "mg/dL"}, {"measurement": "CREATINE PHOSPHOKINASE", "setting": "72 h, time 3 day", "value": 986.67, "unit": "u/L"}, {"measurement": "CREATININE", "setting": "72 h, time 3 day", "value": 0.37, "unit": "mg/dL"}, {"measurement": "GLUCOSE", "setting": "72 h, time 3 day", "value": 131.67, "unit": "mg/dL"}, {"measurement": "LACTATE DEHYDROGENASE", "setting": "72 h, time 3 day", "value": 335, "unit": "u/L"}, {"measurement": "LIPASE", "setting": "72 h, time 3 day", "value": 12.67, "unit": "u/L"}, {"measurement": "PHOSPHORUS", "setting": "72 h, time 3 day", "value": 11.5, "unit": "mg/dL"}, {"measurement": "POTASSIUM", "setting": "72 h, time 3 day", "value": 6.17, "unit": "MEQ/L"}, {"measurement": "SODIUM", "setting": "72 h, time 3 day", "value": 143.73, "unit": "MEQ/L"}, {"measurement": "TOTAL BILIRUBIN", "setting": "72 h, time 3 day", "value": 0.23, "unit": "mg/dL"}, {"measurement": "TOTAL PROTEIN", "setting": "72 h, time 3 day", "value": 6.1, "unit": "G/DL"}, {"measurement": "URIC ACID", "setting": "72 h, time 3 day", "value": 1.2, "unit": "mg/dL"}, {"measurement": "ABSOLUTE BASOPHIL", "setting": "120 h, time 5 day", "value": 0, "unit": "CELLS/uL"}, {"measurement": "ABSOLUTE EOSINOPHIL", "setting": "120 h, time 5 day", "value": 74.67, "unit": "CELLS/uL"}, {"measurement": "ABSOLUTE LYMPHOCYTE", "setting": "120 h, time 5 day", "value": 9603.33, "unit": "CELLS/uL"}, {"measurement": "ABSOLUTE MONOCYTE", "setting": "120 h, time 5 day", "value": 53.33, "unit": "CELLS/uL"}, {"measurement": "ABSOLUTE SEGMENTED NEUTROPHIL", "setting": "120 h, time 5 day", "value": 302, "unit": "CELLS/uL"}, {"measurement": "BASOPHIL", "setting": "120 h, time 5 day", "value": 0, "unit": "%"}, {"measurement": "EOSINOPHIL", "setting": "120 h, time 5 day", "value": 0.67, "unit": "%"}, {"measurement": "ERYTHROCYTE COUNT", "setting": "120 h, time 5 day", "value": 5.25, "unit": "x10E6/uL"}, {"measurement": "HEMATOCRIT", "setting": "120 h, time 5 day", "value": 32.53, "unit": "%"}, {"measurement": "HEMOGLOBIN", "setting": "120 h, time 5 day", "value": 13.13, "unit": "G/DL"}, {"measurement": "LEUKOCYTE COUNT", "setting": "120 h, time 5 day", "value": 10.03, "unit": "x10E3/uL"}, {"measurement": "LYMPHOCYTE", "setting": "120 h, time 5 day", "value": 95.67, "unit": "%"}, {"measurement": "MEAN CORPUSCULAR HEMOGLOBIN", "setting": "120 h, time 5 day", "value": 24.97, "unit": "pg"}, {"measurement": "MEAN CORPUSCULAR HEMOGLOBIN CONCENTRATION", "setting": "120 h, time 5 day", "value": 40.37, "unit": "G/DL"}, {"measurement": "MEAN CORPUSCULAR VOLUME", "setting": "120 h, time 5 day", "value": 61.93, "unit": "fL"}, {"measurement": "MONOCYTE", "setting": "120 h, time 5 day", "value": 0.67, "unit": "%"}, {"measurement": "NEUTROPHIL", "setting": "120 h, time 5 day", "value": 3, "unit": "%"}, {"measurement": "NUCLEATED RED BLOOD CELLS", "setting": "120 h, time 5 day", "value": "0 /100WBC"}, {"measurement": "PLATELET COUNT", "setting": "120 h, time 5 day", "value": 1046.33, "unit": "x10E3/uL"}, {"measurement": "ALANINE AMINOTRANSFERASE", "setting": "120 h, time 5 day", "value": 59.33, "unit": "u/L"}, {"measurement": "ALBUMIN", "setting": "120 h, time 5 day", "value": 4.03, "unit": "G/DL"}, {"measurement": "ALKALINE PHOSPHATASE", "setting": "120 h, time 5 day", "value": 341.67, "unit": "u/L"}, {"measurement": "ASPARTATE AMINOTRANSFERASE", "setting": "120 h, time 5 day", "value": 113, "unit": "u/L"}, {"measurement": "BLOOD UREA NITROGEN", "setting": "120 h, time 5 day", "value": 19, "unit": "mg/dL"}, {"measurement": "CARBON DIOXIDE", "setting": "120 h, time 5 day", "value": 25.67, "unit": "mmol/L"}, {"measurement": "CHLORIDE", "setting": "120 h, time 5 day", "value": 105, "unit": "MEQ/L"}, {"measurement": "CHOLESTEROL", "setting": "120 h, time 5 day", "value": 57, "unit": "mg/dL"}, {"measurement": "CREATINE PHOSPHOKINASE", "setting": "120 h, time 5 day", "value": 469, "unit": "u/L"}, {"measurement": "CREATININE", "setting": "120 h, time 5 day", "value": 0.22, "unit": "mg/dL"}, {"measurement": "GLUCOSE", "setting": "120 h, time 5 day", "value": 246.33, "unit": "mg/dL"}, {"measurement": "LACTATE DEHYDROGENASE", "setting": "120 h, time 5 day", "value": 616, "unit": "u/L"}, {"measurement": "LIPASE", "setting": "120 h, time 5 day", "value": 10.33, "unit": "u/L"}, {"measurement": "PHOSPHORUS", "setting": "120 h, time 5 day", "value": 12.93, "unit": "mg/dL"}, {"measurement": "POTASSIUM", "setting": "120 h, time 5 day", "value": 5.03, "unit": "MEQ/L"}, {"measurement": "SODIUM", "setting": "120 h, time 5 day", "value": 147.63, "unit": "MEQ/L"}, {"measurement": "TOTAL BILIRUBIN", "setting": "120 h, time 5 day", "value": 0.2, "unit": "mg/dL"}, {"measurement": "TOTAL PROTEIN", "setting": "120 h, time 5 day", "value": 5.5, "unit": "G/DL"}, {"measurement": "URIC ACID", "setting": "120 h, time 5 day", "value": 2.07, "unit": "mg/dL"}]}
